Target: N-terminally His6-tagged recombinant kinase domain of the human c-Met (amino acids 960-1390) (Homo sapiens (Human), UniProt P08581)
Assay: c-Met Receptor Tyrosine Kinase Homogeneous Time-Resolved Fluorescence Assay (Alternative Format)
Format: biochemical
Conditions: c-Met kinase inhibition, HTRF format, ATP 10 μM
From the text: c-Met Receptor Tyrosine Kinase Homogeneous Time-Resolved Fluorescence Assay (Alternative Format):
The N-terminally His6-tagged recombinant kinase domain of the human c-Met (amino acids 960-1390), expressed in insect cells (SF21) and purified by Ni-NTA affinity chromatography and consecutive size exclusion chromatography (Superdex 200), is used. Alternatively, commercially available c-Met (Millipore) can be used. As substrate for the kinase reaction, the biotinylated poly-Glu,Tyr (4:1) copolymer (#61GT0BLC, Cis Biointernational, Marcoule, France) is used.
For the assay, 50 nL of a 100-fold concentrated solution of the test compound in DMSO is pipetted into a black low-volume 384-well microtiter plate (Greiner Bio-One, Frickenhausen, Germany). […]
The resulting mixture is incubated for 1 h at 22° C. to allow the binding of the biotinylated phosphorylated peptide to the streptavidine-XLent and the PT66-Eu-chelate. Subsequently, the amount of phosphorylated substrate is evaluated by measurement of the resonance energy transfer from the PT66-Eu-chelate to the streptavidine-XLent. Therefore, the fluorescence emissions at 620 nm and 665 nm after excitation at 350 nm are measured in an HTRF reader, e.g. Rubystar (BMG Lab-technologies, Offenburg, Germany) or Viewlux (Perkin-Elmer). […]

N-terminally His6-tagged recombinant kinase domain of the human c-Met (amino acids 960-1390), sequence (P08581 960-1390): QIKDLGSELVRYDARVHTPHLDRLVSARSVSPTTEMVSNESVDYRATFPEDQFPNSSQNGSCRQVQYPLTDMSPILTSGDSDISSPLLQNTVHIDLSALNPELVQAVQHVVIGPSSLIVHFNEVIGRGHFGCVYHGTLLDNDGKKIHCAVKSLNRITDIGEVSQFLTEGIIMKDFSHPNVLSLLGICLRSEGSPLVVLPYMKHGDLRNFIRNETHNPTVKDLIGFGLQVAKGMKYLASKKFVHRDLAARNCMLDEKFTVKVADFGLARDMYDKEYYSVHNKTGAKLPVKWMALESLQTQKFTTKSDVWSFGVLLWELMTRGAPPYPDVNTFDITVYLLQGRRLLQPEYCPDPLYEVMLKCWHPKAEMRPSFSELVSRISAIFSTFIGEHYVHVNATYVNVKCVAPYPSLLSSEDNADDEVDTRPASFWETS

N#CC1=C(C(F)F)NC(C(F)F)=C(C#N)C1c1cc2c(N)nccc2o1 [Example 18]
IC50: 1030 nM
